Results: paper PMC8670397 (Bioorganic & medicinal chemistry, 2020)

Tests used:
[1] = molecular target: 5-HT7 receptor (Homo sapiens, UniProt P34969)
[2] = molecular target: D1 receptor (Homo sapiens, UniProt P21728); assay: biochemical
[3] = molecular target: 5-HT1A receptor (Homo sapiens, UniProt P08908)
[4] = cited from earlier work
[5] = test system: D2R; settings: similar to aripiprazole; cited from earlier work

5-HT7 receptor, sequence (P34969 whole entry): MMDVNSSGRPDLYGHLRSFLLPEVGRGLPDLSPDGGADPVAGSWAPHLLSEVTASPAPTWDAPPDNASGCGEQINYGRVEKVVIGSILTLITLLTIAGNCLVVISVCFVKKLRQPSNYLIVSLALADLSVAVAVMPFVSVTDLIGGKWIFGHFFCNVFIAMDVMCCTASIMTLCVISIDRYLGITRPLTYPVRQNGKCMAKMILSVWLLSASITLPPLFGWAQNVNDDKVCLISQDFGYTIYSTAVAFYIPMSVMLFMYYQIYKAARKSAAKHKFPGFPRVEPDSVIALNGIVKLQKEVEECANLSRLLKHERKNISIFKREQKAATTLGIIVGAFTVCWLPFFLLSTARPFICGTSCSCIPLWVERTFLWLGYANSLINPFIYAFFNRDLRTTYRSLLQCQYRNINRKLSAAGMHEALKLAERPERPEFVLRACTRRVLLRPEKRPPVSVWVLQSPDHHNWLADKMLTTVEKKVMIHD
5-HT1A receptor, sequence (P08908 whole entry): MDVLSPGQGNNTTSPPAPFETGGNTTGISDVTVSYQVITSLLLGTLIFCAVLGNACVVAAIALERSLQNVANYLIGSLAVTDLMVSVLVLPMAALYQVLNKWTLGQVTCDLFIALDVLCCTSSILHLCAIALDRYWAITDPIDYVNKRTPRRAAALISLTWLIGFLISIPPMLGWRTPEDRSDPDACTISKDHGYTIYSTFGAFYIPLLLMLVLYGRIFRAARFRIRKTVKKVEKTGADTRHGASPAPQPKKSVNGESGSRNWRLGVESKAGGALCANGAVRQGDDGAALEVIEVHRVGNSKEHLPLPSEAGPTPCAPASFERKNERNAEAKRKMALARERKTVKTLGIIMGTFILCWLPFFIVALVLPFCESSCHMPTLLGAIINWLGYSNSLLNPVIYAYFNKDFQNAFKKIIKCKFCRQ
D1 receptor, sequence (P21728 whole entry): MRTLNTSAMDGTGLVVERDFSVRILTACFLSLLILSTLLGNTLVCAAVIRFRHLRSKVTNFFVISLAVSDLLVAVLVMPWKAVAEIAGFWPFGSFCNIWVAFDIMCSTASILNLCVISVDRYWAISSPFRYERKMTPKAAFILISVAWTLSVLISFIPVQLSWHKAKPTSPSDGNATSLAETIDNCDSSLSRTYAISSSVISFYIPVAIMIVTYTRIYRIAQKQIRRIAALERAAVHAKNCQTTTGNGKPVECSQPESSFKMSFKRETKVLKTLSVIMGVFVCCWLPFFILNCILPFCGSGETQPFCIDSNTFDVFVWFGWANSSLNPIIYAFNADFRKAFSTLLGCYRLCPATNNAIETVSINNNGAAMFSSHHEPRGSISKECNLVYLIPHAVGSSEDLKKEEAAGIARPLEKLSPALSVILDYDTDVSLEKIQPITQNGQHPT

Q: Which “mean pKi ± SEM 5-HT7” value [1] does the source give for `Fc1ccc(CCCCN2CCN(c3cccnc3)CC2)cc1.O=C(O)C(=O)O` [Compound 21, 1-(4-(4-fluorophenyl)butyl)-4-(pyridin-3-yl)piperazine oxalate] here?
A: 6.63 ± 0.09

Q: And the Ki [2]?
A: > 2000 nM

Q: For `O=C1c2ccc(F)cc2CC1CCN1CCCN(c2ccccn2)CC1` (stereo not drawn) [Compound 14], which “mean pKi ± SEM 5-HT1A” value [3] is on record?
A: 6.1 ± 0.1

Q: With `Cc1ccc(N2CCN(CCCCc3ccc(F)cc3)CC2)nc1` [Compound 9, 1-(4-(4-fluorophenyl)butyl)-4-(5-methylpyridin-2-yl)piperazine] as the molecule, how does the “mean pKi ± SEM 5-HT7” value [1] read?
A: 7.2 ± 0.1

Q: With `Fc1ccc(CCCCN2CCN(c3ccccn3)CC2)cc1` [Compound 5, 1-(4-(4-fluorophenyl)butyl)-4-(pyridin-2-yl)piperazine] as the molecule, how does the “blood brain barrier (BBB) permeability” value [4] read?
A: high

Q: And the “signaling at the D2R” value [5]?
A: activates both G-protein and β-arrestin signaling
